The results in this text go back to US8076352B2, “Administration of carboline derivatives useful in the treatment of cancer and other diseases” (PTC Therapeutics, Inc., priority 2004, dated 2011).

The assay has as its system hypoxia-inducible endogenous VEGF expression in HeLa cells. Description: Hypoxia-inducible endogenous VEGF expression, VEGF ELISA of conditioned media (dose-response EC50). As to conditions: Homo sapiens, HeLa cells. The class given is cell-based. In outline:
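Secreted VEGF was quantified by ELISA against a per-assay standard curve after HeLa cells spent 24-48 h in 1% O2, 5% CO2, N2 balance with or without compound. Across a series of, e.g., seven concentrations, percentage inhibition (max 100%, min 0%) gave EC50 and CC50 values.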
In general terms: In an ELISA, binding on a coated surface is turned into a signal by an enzyme label.

Where [1] appears, read: hypoxic conditions (1% O2, 5% CO2).

The structures appear in SMILES notation. Bounds are passed on as bounds.

One may read the EC50 as the midpoint of the concentration-response curve. Low readings indicate a more potent agent, high ones a less potent agent. `O=C(Oc1ccc(F)cc1)N1CCc2c([nH]c3ccc(Cl)cc23)C1c1ccc(OCCCCCCn2cncn2)cc1` (stereo not shown) [Compound 781]: the EC50 (hypoxic conditions (1% O2)) was < 8 nM.
In the case of `O=C(Oc1ccc(Cl)cc1)N1CCc2c([nH]c3ccc(Cl)cc23)C1c1ccc(OCCCCCCNCCO)cc1` (stereo not shown) [Compound 782], the EC50 (hypoxic conditions (1% O2)) was < 8 nM.
With `O=C(Oc1ccc(Cl)cc1)N1CCc2c([nH]c3ccc(Cl)cc23)C1c1ccc(OCCCCCCN2CCCC2)cc1` (stereo not shown) [Compound 783], under “hypoxic conditions (1% O2)”, the EC50 is < 8 nM.
The same measure, in the same setting: the figure for `CC(C)NCCCCCCOc1ccc(C2c3[nH]c4ccc(Cl)cc4c3CCN2C(=O)Oc2ccc(Cl)cc2)cc1` (stereo not shown) [Compound 784] is < 8 nM; for `COCCCNCCCCCCOc1ccc(C2c3[nH]c4ccc(Cl)cc4c3CCN2C(=O)Oc2ccc(Cl)cc2)cc1` (stereo not shown) [Compound 785] it is < 8 nM.
Consider `O=C(Oc1ccc(Cl)cc1)N1CCc2c([nH]c3ccc(Cl)cc23)C1c1ccc(OCCCCCCN2CCOCC2)cc1` (stereo not shown) [Compound 786], for which, for the setting “hypoxic conditions (1% O2)”, the EC50 is < 8 nM.
For `O=C(Oc1ccc(Cl)cc1)N1CCc2c([nH]c3ccc(Cl)cc23)C1c1ccc(OCCCCCCN2CCCCC2)cc1` (stereo not shown) [Compound 787], the EC50 (hypoxic conditions (1% O2)) is < 8 nM.
With `CN1CCN(CCCCCCOc2ccc(C3c4[nH]c5ccc(Cl)cc5c4CCN3C(=O)Oc3ccc(Cl)cc3)cc2)CC1` (stereo not shown) [Compound 788], the EC50 (hypoxic conditions (1% O2)) is 8 to 40 nM.
Same read-out and setting: the figure for `O=C(Oc1ccc(Cl)cc1)N1CCc2c([nH]c3ccc(Cl)cc23)C1c1ccc(OCCCCCCNCCCn2ccnc2)cc1` (stereo not shown) [Compound 789] is 40 to 200 nM.
On the same count and under the same terms, in the case of `O=C(Oc1ccc(Cl)cc1)N1CCc2c([nH]c3ccc(Cl)cc23)C1c1ccc(OCCCCCCn2ccnc2)cc1` (stereo not shown) [Compound 790] it was < 8 nM; in that of `O=C(Oc1ccc(Cl)cc1)N1CCc2c([nH]c3ccc(Cl)cc23)C1c1ccc(OCCCCCCn2cncn2)cc1` (stereo not shown) [Compound 791], < 8 nM.
With `O=C(Oc1ccc(F)cc1)N1CCc2c([nH]c3ccc(Cl)cc23)C1c1ccc(OCCn2ccnn2)cc1` (stereo not shown) [Compound 833], the 50% effective concentration (EC50) under setting [1] was 40 to 200 nM.
Still for that read-out and setting: in the case of `O=C(Oc1ccc(F)cc1)N1CCc2c([nH]c3ccc(Cl)cc23)C1c1ccc(OCCn2cncn2)cc1` (stereo not shown) [Compound 834] it was 8 to 40 nM; in that of `O=C(Oc1ccc(F)cc1)N1CCc2c([nH]c3ccc(Cl)cc23)C1c1ccc(OCCn2ccnc2)cc1` (stereo not shown) [Compound 835], 40 to 200 nM; in that of `O=C(Oc1ccc(F)cc1)N1CCc2c([nH]c3ccc(Cl)cc23)C1c1ccc(OCCn2cccn2)cc1` (stereo not shown) [Compound 836], 8 to 40 nM.
In turn, `O=C(Oc1ccc(Cl)cc1)N1CCc2c([nH]c3ccc(Cl)cc23)C1c1ccc(OCCn2ccnn2)cc1` (stereo not shown) [Compound 839] showed an EC50 under setting [1] of 8 to 40 nM.
Turning to `O=C(Oc1ccc(Cl)cc1)N1CCc2c([nH]c3ccc(Cl)cc23)C1c1ccc(OCCn2cncn2)cc1` (stereo not shown) [Compound 840], the EC50 under setting [1] lay in the range of 8 to 40 nM.
In turn, `CC(C)(C)OC(=O)N1CCC(COc2ccc(C3c4[nH]c5ccc(Cl)cc5c4CCN3C(=O)Oc3ccc(Cl)cc3)cc2)CC1` (stereo not shown) [Compound 845] registered an EC50 under setting [1] of 40 to 200 nM.
On the same count and under the same terms, in the case of `NCC(O)COc1ccc(C2c3[nH]c4ccc(Cl)cc4c3CCN2C(=O)Oc2ccc(Cl)cc2)cc1` (stereo not shown) [Compound 846] it was 40 to 200 nM; in that of `CC(=O)NCC(O)COc1ccc(C2c3[nH]c4ccc(Cl)cc4c3CCN2C(=O)Oc2ccc(Cl)cc2)cc1` (stereo not shown) [Compound 847], 8 to 40 nM.
On to `COC(=O)NCC(O)COc1ccc(C2c3[nH]c4ccc(Cl)cc4c3CCN2C(=O)Oc2ccc(Cl)cc2)cc1` (stereo not shown) [Compound 848], for which, under setting [1], the EC50 is < 8 nM.
For the compound `CS(=O)(=O)NCC(O)COc1ccc(C2c3[nH]c4ccc(Cl)cc4c3CCN2C(=O)Oc2ccc(Cl)cc2)cc1` (stereo not shown) [Compound 849], the EC50 under setting [1] fell in the range of 8 to 40 nM.
In turn, `CNCC(O)COc1ccc(C2c3[nH]c4ccc(Cl)cc4c3CCN2C(=O)Oc2ccc(Cl)cc2)cc1` (stereo not shown) [Compound 850] returned an EC50 under setting [1] of 40 to 200 nM.
Same read-out and setting: in the case of `O=C(Oc1ccc(Cl)cc1)N1CCc2c([nH]c3ccc(Cl)cc23)C1c1ccc(OCC(O)Cn2ccnc2)cc1` (stereo not shown) [Compound 867] it was 8 to 40 nM; in that of `Cc1ccc(OC(=O)N2CCc3c([nH]c4ccc(Cl)cc34)C2c2ccc(OCCCn3cncn3)cc2)cc1` (stereo not shown) [Compound 882], < 8 nM.
Still for that read-out and setting: in the case of `COc1ccc(OC(=O)N2CCc3c([nH]c4ccc(Cl)cc34)C2c2ccc(OCCCn3cncn3)cc2)cc1` (stereo not shown) [Compound 888] it was < 8 nM.
Turning to `O=C(Oc1ccc(F)cc1)N1CCc2c([nH]c3ccc(Cl)cc23)C1c1ccc(OCCCn2ccnc2)cc1` (stereo not shown) [Compound 889], under setting [1], the EC50 is < 8 nM.
Same read-out and setting: in the case of `O=C(Oc1ccccc1)N1CCc2c([nH]c3ccc(Cl)cc23)C1c1ccc(OCCCn2cncn2)cc1` (stereo not shown) [Compound 891] it was < 8 nM.
As for `O=C(Oc1ccc(F)cc1)N1CCc2c([nH]c3ccc(Cl)cc23)C1c1ccc(OCCCn2cncn2)cc1` (stereo not shown) [Compound 892], the concentration for a half-maximal effect (EC50) under setting [1] was < 8 nM.
Regarding `O=C(Oc1ccc(Cl)cc1)N1CCc2c([nH]c3ccc(Cl)cc23)C1c1ccc(OCCCN2CCOCC2)cc1` (stereo not shown) [Compound 894], under setting [1], the 50% effective concentration (EC50) is < 8 nM.
With `Cc1ccc(OC(=O)N2CCc3c([nH]c4ccc(Cl)cc34)C2c2ccc(OCCCn3ccnc3)cc2)cc1` (stereo not shown) [Compound 900], under setting [1], the concentration giving a half-maximal response (EC50) was < 8 nM.
On the same count and under the same terms, the figure for `CC(=O)N1CCN(CCCOc2ccc(C3c4[nH]c5ccc(Cl)cc5c4CCN3C(=O)Oc3ccc(Cl)cc3)cc2)CC1` (stereo not shown) [Compound 903] is < 8 nM; for `O=C(Oc1ccc(Cl)cc1)N1CCc2c([nH]c3ccc(Cl)cc23)C1c1ccc(OCC(O)CN2CCOCC2)cc1` (stereo not shown) [Compound 904] it is < 8 nM; for `COCCN(C)CCCOc1ccc(C2c3[nH]c4ccc(Cl)cc4c3CCN2C(=O)Oc2ccc(Cl)cc2)cc1` (stereo not shown) [Compound 908] it is < 8 nM.
Turning to `O=C(Oc1ccccc1)N1CCc2c([nH]c3ccc(Cl)cc23)C1c1ccc(OCCCn2ccnc2)cc1` (stereo not shown) [Compound 911], the EC50 under setting [1] was < 8 nM.
For the compound `COCCN(CCOC)CC(O)COc1ccc(C2c3[nH]c4ccc(Cl)cc4c3CCN2C(=O)Oc2ccc(F)cc2)cc1` (stereo not shown) [Compound 913], under setting [1], the EC50 was < 8 nM.
Regarding `Cc1ccc(OC(=O)N2CCc3c([nH]c4ccc(Cl)cc34)C2c2ccc(OCCCCl)cc2)cc1` (stereo not shown) [Compound 915], the concentration giving a half-maximal response (EC50) under setting [1] is < 8 nM.
For `COCCN(CCCOc1ccc(C2c3[nH]c4ccc(Cl)cc4c3CCN2C(=O)Oc2ccc(Cl)cc2)cc1)CCOC` (stereo not shown) [Compound 916], the EC50 under setting [1] was < 8 nM.
`O=C(Oc1ccc(Cl)cc1)N1CCc2c([nH]c3ccc(Cl)cc23)C1c1ccc(OCCCn2ccnc2)cc1` (stereo not shown) [Compound 917]: under setting [1], the EC50 is < 8 nM.
`COCCN(CCOC)CC(O)COc1ccc(C2c3[nH]c4ccc(Cl)cc4c3CCN2C(=O)Oc2ccc(Cl)cc2)cc1` (stereo not shown) [Compound 918]: the EC50 under setting [1] is < 8 nM.
Regarding `COc1ccc(OC(=O)N2CCc3c([nH]c4ccc(Cl)cc34)C2c2ccc(OCCCn3ccnc3)cc2)cc1` (stereo not shown) [Compound 920], the EC50 under setting [1] is < 8 nM.
On to `O=C(Oc1ccc(Cl)cc1)N1CCc2c([nH]c3ccc(Cl)cc23)C1c1ccc(OCCCCl)cc1` (stereo not shown) [Compound 921], for which the EC50 under setting [1] was < 8 nM.
With `O=C(Oc1ccc(F)cc1)N1CCc2c([nH]c3ccc(Cl)cc23)C1c1ccc(OCC(O)Cn2ccnc2)cc1` (stereo not shown) [Compound 922], the EC50 under setting [1] is < 8 nM.
For the compound `O=C(Oc1ccc(Cl)cc1)N1CCc2c([nH]c3ccc(Cl)cc23)C1c1ccc(OCC(O)CN2CCSCC2)cc1` (stereo not shown) [Compound 923], the EC50 under setting [1] is < 8 nM.
For the compound `O=C(Oc1ccc(F)cc1)N1CCc2c([nH]c3ccc(Cl)cc23)C1c1ccc(OCC(O)CN2CCSCC2)cc1` (stereo not shown) [Compound 925], the EC50 under setting [1] is < 8 nM.
Take `O=C(Oc1ccccc1Cl)N1CCc2c([nH]c3ccc(Cl)cc23)C1c1ccc(OCCCn2cncn2)cc1` (stereo not shown) [Compound 926]: the EC50 under setting [1] is < 8 nM.
For the compound `CN1CCCC(COc2ccc(C3c4[nH]c5ccc(Cl)cc5c4CCN3C(=O)Oc3ccc(F)cc3)cc2)C1` (stereo not shown) [Compound 932], the EC50 under setting [1] was < 8 nM.
On the same count and under the same terms, in the case of `O=C(Oc1ccc(Cl)cc1)N1CCc2c([nH]c3ccc(Cl)cc23)C1c1ccc(OCCCN2CCSCC2)cc1` (stereo not shown) [Compound 933] it was < 8 nM; in that of `O=C(Oc1ccccc1Cl)N1CCc2c([nH]c3ccc(Cl)cc23)C1c1ccc(OCCCn2ccnc2)cc1` (stereo not shown) [Compound 934], < 8 nM.
As to `COCCN(C)CC(O)COc1ccc(C2c3[nH]c4ccc(Cl)cc4c3CCN2C(=O)Oc2ccc(F)cc2)cc1` (stereo not shown) [Compound 936], the EC50 under setting [1] is < 8 nM.
With `CCN(CC)CC(O)COc1ccc(C2c3[nH]c4ccc(Cl)cc4c3CCN2C(=O)Oc2ccc(Cl)cc2)cc1` (stereo not shown) [Compound 938], the EC50 under setting [1] was < 8 nM.
Regarding `O=C(Oc1ccc(F)cc1)N1CCc2c([nH]c3ccc(Cl)cc23)C1c1ccc(OCC(O)Cn2ccnn2)cc1` (stereo not shown) [Compound 941], the EC50 under setting [1] was < 8 nM.
For the compound `O=C(Oc1ccc(Cl)cc1)N1CCc2c([nH]c3ccc(Cl)cc23)C1c1ccc(OCCCN2CCN(CCO)CC2)cc1` (stereo not shown) [Compound 942], the 50% effective concentration (EC50) under setting [1] was 8 to 40 nM.
`COc1ccc(OC(=O)N2CCc3c([nH]c4ccc(Cl)cc34)C2c2ccc(OCCCCl)cc2)cc1` (stereo not shown) [Compound 944] had an EC50 under setting [1] of 8 to 40 nM.
Under setting [1], `CCN(CC)CCCOc1ccc(C2c3[nH]c4ccc(Cl)cc4c3CCN2C(=O)Oc2ccc(Cl)cc2)cc1` (stereo not shown) [Compound 946] returned an EC50 of 8 to 40 nM.
Regarding `Cc1ccc(OC(=O)N2CCc3c([nH]c4ccc(Cl)cc34)C2c2ccc(OCC3CCCN(C)C3)cc2)cc1` (stereo not shown) [Compound 951], the EC50 under setting [1] was in the range of 8 to 40 nM.
The same measure, in the same setting: the figure for `CN1CCCC(COc2ccc(C3c4[nH]c5ccc(Cl)cc5c4CCN3C(=O)Oc3ccccc3)cc2)C1` (stereo not shown) [Compound 952] is 8 to 40 nM; for `CC(C)NCCCOc1ccc(C2c3[nH]c4ccc(Cl)cc4c3CCN2C(=O)Oc2ccc(Cl)cc2)cc1` (stereo not shown) [Compound 953] it is 8 to 40 nM; for `CCS(=O)(=O)Nc1ccc(C2c3[nH]c4ccc(Cl)cc4c3CCN2C(=O)Oc2ccc(Cl)cc2)cc1` (stereo not shown) [Compound 958] it is 8 to 40 nM.
Compound `O=C(Oc1ccc(Cl)cc1)N1CCc2c([nH]c3ccc(Cl)cc23)C1c1ccc(OCC(O)CN2CCN(CCO)CC2)cc1` (stereo not shown) [Compound 960] displayed an EC50 under setting [1] of 8 to 40 nM.
Turning to `CN1CCN(CCCOc2ccc(C3c4[nH]c5ccc(Cl)cc5c4CCN3C(=O)Oc3ccc(Cl)cc3)cc2)CC1` (stereo not shown) [Compound 961], under setting [1], the EC50 fell in the range of 8 to 40 nM.
